Assay results published in ChEMBL document CHEMBL5653631, “A Potent and Selective ULK1 Inhibitor Suppresses Autophagy and Sensitizes Cancer Cells to Nutrient Stress” (iScience, 2018).
One block for each compound: values may come before it.

Key:
[1] = biological target: T1, cGMP-dependent protein kinase 2 (Homo sapiens) (UniProt Q13237); experiment: Inhibition of human recombinant PKG2 at 500 nM in presence of ATP by radiometric assay relative to control
T1 sequence (whole entry): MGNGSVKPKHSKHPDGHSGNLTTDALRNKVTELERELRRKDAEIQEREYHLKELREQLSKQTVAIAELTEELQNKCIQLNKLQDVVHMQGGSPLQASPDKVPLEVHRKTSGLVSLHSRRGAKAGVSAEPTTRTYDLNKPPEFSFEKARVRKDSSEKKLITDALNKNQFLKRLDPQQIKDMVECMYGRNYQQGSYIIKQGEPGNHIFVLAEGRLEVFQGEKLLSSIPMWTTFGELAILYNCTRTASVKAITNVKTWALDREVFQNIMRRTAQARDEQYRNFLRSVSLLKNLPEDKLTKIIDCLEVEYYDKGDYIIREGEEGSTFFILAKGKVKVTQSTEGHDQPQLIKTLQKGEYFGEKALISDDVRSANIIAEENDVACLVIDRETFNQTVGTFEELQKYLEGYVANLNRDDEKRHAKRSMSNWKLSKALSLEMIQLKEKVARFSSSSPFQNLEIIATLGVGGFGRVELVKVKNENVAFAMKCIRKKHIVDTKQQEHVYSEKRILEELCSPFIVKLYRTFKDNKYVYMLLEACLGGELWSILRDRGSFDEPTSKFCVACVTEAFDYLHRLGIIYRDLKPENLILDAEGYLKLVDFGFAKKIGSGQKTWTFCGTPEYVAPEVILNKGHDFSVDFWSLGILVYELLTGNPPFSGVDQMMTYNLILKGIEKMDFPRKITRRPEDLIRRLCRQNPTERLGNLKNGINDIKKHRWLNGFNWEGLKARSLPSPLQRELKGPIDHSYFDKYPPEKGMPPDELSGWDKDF

Homo sapiens = organism: Homo sapiens; experiment: Inhibition of human recombinant ABL at 500 nM related to control ULK1
[2] = biological target: Calcium/calmodulin-dependent protein kinase type 1G (Homo sapiens) (UniProt Q96NX5); experiment: Inhibition of human recombinant CaMK1g at 500 nM in presence of ATP by radiometric assay relative to control
Chain of Calcium/calmodulin-dependent protein kinase type 1G (Homo sapiens) (Q96NX5 whole entry): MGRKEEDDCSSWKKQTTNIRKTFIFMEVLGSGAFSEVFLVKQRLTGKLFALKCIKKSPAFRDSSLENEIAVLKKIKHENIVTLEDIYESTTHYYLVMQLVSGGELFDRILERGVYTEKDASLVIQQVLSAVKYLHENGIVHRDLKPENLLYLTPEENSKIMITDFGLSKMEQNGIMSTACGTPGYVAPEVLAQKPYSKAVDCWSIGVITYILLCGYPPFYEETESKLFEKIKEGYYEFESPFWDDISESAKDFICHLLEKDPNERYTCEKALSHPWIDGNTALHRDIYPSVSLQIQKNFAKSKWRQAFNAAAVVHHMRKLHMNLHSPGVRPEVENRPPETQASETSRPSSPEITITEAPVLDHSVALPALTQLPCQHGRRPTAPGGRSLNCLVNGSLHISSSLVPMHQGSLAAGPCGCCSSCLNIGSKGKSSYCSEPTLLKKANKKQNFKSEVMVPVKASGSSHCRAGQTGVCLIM

[3] = biological target: Mitogen-activated protein kinase 10 (Homo sapiens) (UniProt P53779); experiment: Inhibition of human recombinant JNK3 at 15 nM related to control ULK1
Chain of Mitogen-activated protein kinase 10 (Homo sapiens) (P53779 whole entry): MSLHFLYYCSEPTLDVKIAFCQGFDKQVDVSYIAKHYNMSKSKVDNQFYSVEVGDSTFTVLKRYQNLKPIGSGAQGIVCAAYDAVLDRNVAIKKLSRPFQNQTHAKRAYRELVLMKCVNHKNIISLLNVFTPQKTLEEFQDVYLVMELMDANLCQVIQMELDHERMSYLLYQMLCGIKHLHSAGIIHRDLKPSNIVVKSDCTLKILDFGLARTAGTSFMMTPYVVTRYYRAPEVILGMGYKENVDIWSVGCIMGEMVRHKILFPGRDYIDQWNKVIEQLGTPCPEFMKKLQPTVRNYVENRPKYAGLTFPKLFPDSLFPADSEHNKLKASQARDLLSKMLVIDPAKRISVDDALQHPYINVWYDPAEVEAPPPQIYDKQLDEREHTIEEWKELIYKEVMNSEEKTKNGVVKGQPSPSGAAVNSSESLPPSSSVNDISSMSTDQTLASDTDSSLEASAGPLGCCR

[4] = biological target: T2, Serine/threonine-protein kinase DCLK2 (Homo sapiens) (UniProt Q8N568); experiment: Inhibition of human recombinant DCAMKL2 at 40 nM in presence of ATP by radiometric assay relative to control
T2 sequence (whole entry): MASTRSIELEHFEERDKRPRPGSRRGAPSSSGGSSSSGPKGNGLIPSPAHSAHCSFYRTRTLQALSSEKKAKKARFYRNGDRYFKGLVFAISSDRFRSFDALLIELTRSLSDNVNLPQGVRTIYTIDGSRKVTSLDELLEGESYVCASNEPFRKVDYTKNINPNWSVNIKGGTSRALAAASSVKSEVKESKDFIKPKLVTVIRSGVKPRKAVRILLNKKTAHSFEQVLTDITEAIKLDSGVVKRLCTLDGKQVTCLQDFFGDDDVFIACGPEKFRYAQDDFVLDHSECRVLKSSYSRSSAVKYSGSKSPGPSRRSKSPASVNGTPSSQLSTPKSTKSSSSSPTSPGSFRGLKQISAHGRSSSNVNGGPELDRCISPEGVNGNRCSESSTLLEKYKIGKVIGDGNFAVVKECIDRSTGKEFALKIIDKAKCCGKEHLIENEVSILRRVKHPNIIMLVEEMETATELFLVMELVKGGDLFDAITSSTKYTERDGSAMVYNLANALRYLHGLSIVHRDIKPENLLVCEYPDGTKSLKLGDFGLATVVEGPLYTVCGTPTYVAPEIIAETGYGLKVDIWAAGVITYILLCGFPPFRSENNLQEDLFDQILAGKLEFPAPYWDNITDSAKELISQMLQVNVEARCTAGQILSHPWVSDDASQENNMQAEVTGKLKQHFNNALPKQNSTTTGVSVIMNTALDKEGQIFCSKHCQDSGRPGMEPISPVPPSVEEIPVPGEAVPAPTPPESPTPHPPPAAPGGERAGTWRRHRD

[5] = biological target: T3, Interleukin-1 receptor-associated kinase 4 (Homo sapiens) (UniProt Q9NWZ3); experiment: Inhibition of human recombinant IRAK4 at 40 nM in presence of ATP by radiometric assay relative to control
T3 sequence (whole entry): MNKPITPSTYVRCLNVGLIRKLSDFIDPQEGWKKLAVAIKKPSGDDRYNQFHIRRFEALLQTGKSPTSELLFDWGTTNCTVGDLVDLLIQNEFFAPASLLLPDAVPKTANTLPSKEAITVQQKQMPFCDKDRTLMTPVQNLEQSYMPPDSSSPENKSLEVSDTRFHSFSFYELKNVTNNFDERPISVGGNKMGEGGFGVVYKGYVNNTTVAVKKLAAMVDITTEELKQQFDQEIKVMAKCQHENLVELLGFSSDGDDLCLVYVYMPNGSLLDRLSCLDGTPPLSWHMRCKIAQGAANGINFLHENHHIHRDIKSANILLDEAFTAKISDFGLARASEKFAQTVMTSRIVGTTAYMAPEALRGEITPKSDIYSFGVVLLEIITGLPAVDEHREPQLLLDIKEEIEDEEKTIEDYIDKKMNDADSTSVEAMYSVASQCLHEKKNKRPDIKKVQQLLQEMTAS

[6] = biological target: T4, Serine/threonine-protein kinase Chk1 (Homo sapiens) (UniProt O14757); experiment: Inhibition of human recombinant CHK1 at 40 nM in presence of ATP by radiometric assay relative to control
T4 sequence (whole entry): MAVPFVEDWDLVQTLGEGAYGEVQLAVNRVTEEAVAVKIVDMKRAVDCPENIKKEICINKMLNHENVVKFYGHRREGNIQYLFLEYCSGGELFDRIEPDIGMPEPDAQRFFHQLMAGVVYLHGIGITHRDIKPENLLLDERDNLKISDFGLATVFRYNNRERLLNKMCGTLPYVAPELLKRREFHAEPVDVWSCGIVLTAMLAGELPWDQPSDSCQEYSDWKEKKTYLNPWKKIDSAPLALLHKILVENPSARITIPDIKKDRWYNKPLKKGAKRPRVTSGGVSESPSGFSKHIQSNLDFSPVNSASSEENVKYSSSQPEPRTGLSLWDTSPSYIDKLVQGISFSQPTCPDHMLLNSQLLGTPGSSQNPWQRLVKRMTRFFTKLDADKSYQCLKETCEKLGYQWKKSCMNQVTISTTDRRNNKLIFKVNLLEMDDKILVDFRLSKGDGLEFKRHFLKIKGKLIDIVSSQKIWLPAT

- inhibition [1]: 2%
- fold change (FC) (Homo sapiens): 0.19
- inhibition [2]: 6%
Structure (SMILES): CNC(=O)c1ccccc1Oc1nc(Nc2cc(OC)c(OC)c(OC)c2)ncc1Br

- fold change (FC) [3]: 0.08
Structure (SMILES): CC(C)[C@H](NC(=O)c1cc(-c2cnn3cc(-c4ccc(OCCN5CCCCC5)cc4)cnc23)cs1)C(F)(F)F

- inhibition [4]: 0%
- inhibition [5]: 0%
- inhibition [6]: 0%
Structure (SMILES): O=C(N[C@@H](C1CC1)C(F)(F)F)c1cc(-c2cnn3cc(-c4ccc(F)cc4)cnc23)cs1
